Experimental data: patent US4482554A, “Pharmaceutical compositions containing oxicam derivatives and process for their preparation” (Warner-Lambert Company, priority 1982, dated 1984)
Where a name gives a salt, the structure may show the parent alone. Read-outs that look alike come from different tables or passages of the source.

Columns and labels:
[1] = solubility in water of stoichiometric oxicam salts; type: physicochemical
[2] = stability of solutions / precipitation of active material on storage; type: physicochemical
Description: Especially in the case of oxicam derivatives of general formula (I), there is, in addition, the serious problem of instability of their solutions. Even when such compounds or the salts thereof have been brought into solution, these show a strong tendency, even after a relatively short time, to deposit particles and again to precipitate out a part of the active material. For injection solutions, this is naturally not acceptable.
There are thereby unexpectedly obtained, which was not to have been foreseen by the expert, highly concentrated solutions with a content of up to 30% and preferably of 10 to 20%, referred to the amount of active material used, which, even after storage for 15 months, display no deposition of active material. It is most surprising that this stability is fully retained even at low temperatures.

Cc1cc(NC(=O)C2=C(O)c3ccccc3S(=O)(=O)N2C)no1
solubility ([1]; stoichiometric salt with methylglucamine, per milliliter of solution, read-out: active material per milliliter of solution): 49 mg/mL | dependence of degree of precipitation on concentration ([2]; salt solution, over wide ranges): not dependent upon the concentration | stability of the solution ([2]; stoichiometric salts, precipitation of active material): unstable and again precipitate out considerable amounts of active material

Cc1cc(NC(=O)C2=C(O)c3ccccc3S(=O)(=O)N2C)no1 [potassium salts]
solubility in water after storage ([1]; after 4 months, decreased by precipitation from the solution, 175200 min): 20 mg/mL | solubility in water, initial ([1]; shortly after preparation): about 30 mg/ml

Cc1cc(NC(=O)C2=C(O)c3ccccc3S(=O)(=O)N2C)no1 [sodium salts of isoxicam]
solubility ([1]; shortly after preparation, read-out: solubility in water, initial): ~24 mg/mL
